Patent US20250368683A1, “METHOD FOR TREATING OR PREVENTING BRONCHIAL ALLERGIC DISEASES WITH PEPTIDE COMPOSITION” (Greenyn Biotechnology Co., Ltd, priority 2024, published 2025)

Key:
Format in all cases: cell-based, mouse
IL-13 = assay: Cell test: IL-13 secretion by P815 cells stimulated with compound 48/80 (ELISA); parameters: IL-13 inhibitory activity: unit not given here; details: for IL-13 inhibitory activity: 20 minutes pre-incubation with polypeptide, then compound 48/80, total 6 hours, supernatant ELISA; for IL-13 inhibitory activity (in words): compound 48/80
Protocol: (§1) In this example, the cell line used was the P815 mouse mastocytoma cell line, and the allergen was compound 48/80. To start with, each of the polypeptides represented by SEQ ID No. 1-10 was co-cultured with the P815 cells for 20 minutes, was then added with compound 48/80, and then continued co-culturing for a total of 6 hours. When the culturing process was completed, the supernatants were collected, and the amounts of IL-4 and IL-13 secretions were analyzed by enzyme-linked immunosorbent assay (ELISA), with the results shown in FIG. 1 and Table 2.

IL-4 = assay: Cell test: IL-4 secretion by P815 cells stimulated with compound 48/80 (ELISA); parameters: unit not given here; details: 20 minutes pre-incubation with polypeptide, then compound 48/80, total 6 hours, supernatant ELISA
Protocol: as §1

Th2 pathway = assay: Cell test: overall inhibitory activity on the Th2 pathway (IL-4 and IL-13, P815 cells); details: all in all, from IL-4 and IL-13 results in P815 cells
Protocol: as §1
It can be known from the results in FIG. 1 and Table 2 that the polypeptides represented by SEQ ID No. 1-10 had IL-4 inhibitory activity; that the polypeptides represented by SEQ ID NO.

| Sequence | IL-13 inhibitory activity (IL-13) | IL-13 inhibitory activity (in words) (IL-13) | IL-4 inhibitory activity (IL-4) | inhibitory activity on the Th2 pathway (in words) (Th2 pathway) |
| --- | --- | --- | --- | --- |
| ALYPLLTTLTD [SEQ ID No. 5] | −71.4 | had IL-13 inhibitory activity | −13.1 |  |
| GHCGCSSG [SEQ ID No. 8] | 0.0 |  | −38.5 | relatively good inhibitory activity |
| IGVDEHYTPI [SEQ ID No. 10] | 0.0 |  | −7.2 |  |
| INFVTEEDKR [SEQ ID No. 1] | 0.0 |  | −25.2 |  |
| LGVTNINISDP [SEQ ID No. 2] | 0.0 |  | −16.0 |  |
| LVGTDVATAQAP [SEQ ID No. 7] | 0.0 |  | −23.9 |  |
| NFIVTGLQDIM [SEQ ID No. 9] | −57.1 | had IL-13 inhibitory activity | −11.5 | relatively good inhibitory activity |
| RLTDYFTID [SEQ ID No. 3] | 0.0 |  | −8.9 |  |
| SMNLSLVLQVV [SEQ ID No. 4] | −21.4 | had IL-13 inhibitory activity | −32.9 | relatively good inhibitory activity |
| VRYLEWSNIESIIA [SEQ ID No. 6] | −60.7 |  | −22.2 | relatively good inhibitory activity |
